Experimental data as given in US20090143279A1 (priority 2007, published 2009).
Read-outs that look alike come from different tables or passages of the source.

Experiments:
mtOXPHOS transcripts = format: cell-based, mouse; settings: for mitoOX (composite Z-score): normalized score vs mock-treated (DMSO) wells
reactive oxygen species = format: cell-based, mouse; settings: for ROS (composite Z-score): normalized score vs mock-treated (DMSO) wells
[1] = system: cellular dehydrogenase activity; settings: for MTT (composite Z-score): normalized score vs mock-treated (DMSO) wells
OXPHOS gene expression = format: cell-based, mouse; settings: for GE-HTS (composite Z-score): normalized score vs mock-treated (DMSO) wells
cytochrome c = format: cell-based, mouse; settings: for cyt c (composite Z-score): normalized score vs mock-treated (DMSO) wells
[2] = system: mitochondrial membrane potential; format: cell-based, mouse; settings: for ΔΨm (composite Z-score): normalized score vs mock-treated (DMSO) wells
nuOXPHOS transcripts = format: cell-based, mouse; settings: for nucOX (composite Z-score): normalized score vs mock-treated (DMSO) wells
C2C12 myotubes = settings: for Viability (composite Z-score): normalized score vs mock-treated (DMSO) wells
[3] = composite Z-score vs mock-treated (DMSO) wells, Conc 20 μM
[4] = composite Z-score vs DMSO, Conc 4.42 μM
[5] = composite Z-score vs DMSO, Conc 8 μM
[6] = composite Z-score vs DMSO, Conc 20 μM
[7] = composite Z-score vs mock-treated (DMSO) wells, concentration of each compound in μM

Compound	mitoOX (composite Z-score) (mtOXPHOS transcripts; Conc 20 μM)	ROS (composite Z-score) (reactive oxygen species; Conc 20 μM)	MTT (composite Z-score) ([1]; Conc 20 μM)	GE-HTS (composite Z-score) (OXPHOS gene expression; Conc 20 μM)	cyt c (composite Z-score) (cytochrome c; Conc 20 μM)	ΔΨm (composite Z-score) ([2]; Conc 20 μM)	nucOX (composite Z-score) (nuOXPHOS transcripts; Conc 20 μM)	Viability (composite Z-score) (C2C12 myotubes; Conc 20 μM)	also measured
COc1ccc(-c2coc3cc(O)ccc3c2=O)c(OC)c1 [2′-methoxyformonetin]	–	–	–	–	–	–	–	–	mitoOX (mtOXPHOS transcripts; [3]): −0.296; ROS (reactive oxygen species; [3]): 1.137; MTT [1, 3]: −1.138; GE-HTS (OXPHOS gene expression; [3]): −0.484; cyt c (cytochrome c; [3]): −1.318; ΔΨm [2, 3]: 0.388; nucOX (nuOXPHOS transcripts; [3]): −0.561; Viability (C2C12 myotubes; [3]): 0.477
CC1=CC(=O)[C@H]2C(C)(C)CCC[C@]2(C)[C@@]1(O)CCc1ccoc1 [solidagenone]	–	–	–	–	–	–	–	–	mitoOX (mtOXPHOS transcripts; [3]): 0.441; ROS (reactive oxygen species; [3]): 1.734; MTT [1, 3]: 0.084; GE-HTS (OXPHOS gene expression; [3]): 0.127; cyt c (cytochrome c; [3]): −0.061; ΔΨm [2, 3]: −0.242; nucOX (nuOXPHOS transcripts; [3]): −0.023; Viability (C2C12 myotubes; [3]): −0.409
O=C(O)Cc1cc(I)c(Oc2cc(I)c(O)c(I)c2)c(I)c1 [tetrac]	0.898	2.718	−0.677	0.811	0.674	−1.457	0.714	1.361	–
C=C1C2CC[C@@]3(C)[C@H](c4ccoc4)OC(=O)C[C@]13O[C@H]1C[C@H](OC(C)=O)C(C)(C)[C@H](CC(=O)OC)[C@@]21C	1.332	−0.319	−0.881	0.772	−0.069	−0.388	0.446	−0.316	–
CC(=O)O[C@@H]1CC2C(C)(CC[C@H](O)C2(C)C)C2CC[C@]3(C)C(=CC(=O)O[C@H]3c3ccoc3)C21C (stereo partly drawn) [3beta-hydroxydeoxodihydrodeoxygedunin]	−0.359	1.488	−0.656	−0.747	0.142	1.048	−0.849	−1.397	–
Cc1c(N)c(=O)n(-c2ccccc2)n1C [4-aminoantipyrine]	–	–	–	–	–	–	–	–	mitoOX (mtOXPHOS transcripts; [4]): −0.450; ROS (reactive oxygen species; [4]): 0.564; MTT [1, 4]: −1.470; GE-HTS (OXPHOS gene expression; [4]): −0.182; cyt c (cytochrome c; [4]): 0.087; ΔΨm [2, 4]: −4.045; nucOX (nuOXPHOS transcripts; [4]): −0.041; Viability (C2C12 myotubes; [4]): 0.530
CCCCN(CCCC)CCC(O)c1cc2c(Cl)cc(Cl)cc2c2cc(C(F)(F)F)ccc12 (stereo not drawn) [halofantrine]	–	–	–	–	–	–	–	–	mitoOX (mtOXPHOS transcripts; [5]): −0.969; ROS (reactive oxygen species; [5]): 0.012; MTT [1, 5]: −0.174; GE-HTS (OXPHOS gene expression; [5]): −0.508; cyt c (cytochrome c; [5]): −0.236; ΔΨm [2, 5]: −0.668; nucOX (nuOXPHOS transcripts; [5]): −0.239; Viability (C2C12 myotubes; [5]): 0.132
CC(=O)Oc1cccc2c1C(=O)c1c(OC(C)=O)cc(C(=O)O)cc1C2=O [diacerin]	−0.239	0.228	−0.608	−0.446	0.389	0.195	−0.509	−0.692	–
CC1=CC(=O)C2=C(C)CC[C@@H]3[C@H](OC(=O)[C@H]3C)[C@@H]12 [leucodin]	−0.261	0.695	−1.134	−0.300	−0.301	−0.355	−0.270	−0.525	–
CC[C@@]1(O)C(=O)OCc2c1cc1n(c2=O)Cc2cc3cc(O)ccc3nc2-1 [10-hydroxycamtothecin]	−0.782	−1.681	−2.588	−1.137	−2.397	0.725	−1.180	−1.466	–
C=C1C(=O)O[C@@H]2C[C@@]3(C)CCC[C@H](C)C3=C[C@H]12 [helenine]	–	–	–	–	–	–	–	–	mitoOX (mtOXPHOS transcripts; [6]): −1.624; ROS (reactive oxygen species; [6]): −2.409; MTT [1, 6]: −6.498; GE-HTS (OXPHOS gene expression; [6]): −2.156; cyt c (cytochrome c; [6]): −5.312; ΔΨm [2, 6]: −3.676; nucOX (nuOXPHOS transcripts; [6]): −2.240; Viability (C2C12 myotubes; [6]): −4.599
C/C1=C2/[N-][C@H]([C@H](CC(N)=O)[C@@]2(C)CCC(=O)NC[C@@H](C)OP(=O)([O-])O[C@H]2[C@@H](O)[C@@H](n3cnc4cc(C)c(C)cc43)O[C@@H]2CO)[C@]2(C)N=C(/C(C)=C3N=C(/C=C4N=C1[C@@H](CCC(N)=O)C\4(C)C)[C@@H](CCC(N)=O)[C@]\3(C)CC(N)=O)[C@@H](CCC(N)=O)[C@]2(C)CC(N)=O.[Co] [cobalamine]	–	–	–	–	–	–	–	–	mitoOX (mtOXPHOS transcripts; [7]): −0.393; ROS (reactive oxygen species; [7]): 2.944; MTT [1, 7]: −1.369; GE-HTS (OXPHOS gene expression; [7]): −0.402; cyt c (cytochrome c; [7]): −0.617; ΔΨm [2, 7]: 0.097; nucOX (nuOXPHOS transcripts; [7]): −0.373; Viability (C2C12 myotubes; [7]): −0.821
